The source of these data is publication PMC6364417, “Kinase inhibitor library screening identifies synergistic drug combinations effective in sensitive and resistant melanoma cells” (Journal of Experimental & Clinical Cancer Research : CR, 2019).

pIC50: −log10 of the molar value. Read-outs that look alike come from different tables or passages of the source.

The subject of data set [1] is IGR37-XP cells (Vemurafenib-resistant). As to the kind of experiment: Kinase inhibitor library screening, PrestoBlue cell viability, 1 or 10 μM, 72 h. Particulars: for viability at 1 µM / viability at 10 µM: Homo sapiens, IGR-37, 72 h; for viability at 1 µM: read-out: cell viability, IGR37 XP, 1μΜ; for viability at 10 µM: read-out: cell viability, IGR37 XP, 10μΜ.
The next data set deals with 501Mel cells (parental). Described as above. Particulars: 72 h; for viability at 1 µM / viability at 10 µM: Homo sapiens; for viability at 1 µM: read-out: cell viability, 501Mel Parental, 1μΜ; for viability at 10 µM: read-out: cell viability, 501Mel Parental, 10μΜ. Summed up:
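Sensitive parental cells and their resistant derivatives were exposed to library compounds for 72 h. Values represent viability as a percentage of untreated cells.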

Data set [2] concerns 501Mel-GP cells (Dabrafenib-resistant). The description is as above. Particulars: 72 h; for viability at 1 µM / viability at 10 µM: Homo sapiens; for viability at 1 µM: read-out: cell viability, 501Mel GP, 1μΜ; for viability at 10 µM: read-out: cell viability, 501Mel GP, 10μΜ.
For data set [3], the system named is A375-GP cells (Dabrafenib-resistant). The data set is described as above. Particulars: for viability at 1 µM / viability at 10 µM: Homo sapiens, A-375, 72 h; for viability at 1 µM: read-out: cell viability, A375 GP, 1μΜ; for viability at 10 µM: read-out: cell viability, A375 GP, 10μΜ.
Data set [4] relates to A375-XP cells (Vemurafenib-resistant). The data set is described as above. Particulars: for viability at 1 µM / viability at 10 µM: Homo sapiens, A-375, 72 h; for viability at 1 µM: read-out: cell viability, A375 XP, 1μΜ; for viability at 10 µM: read-out: cell viability, A375 XP, 10μΜ.
For a further data set, the system named is IGR37 cells (parental). Described as above. The settings on record: for viability at 1 µM / viability at 10 µM: Homo sapiens, IGR-37, 72 h; for viability at 1 µM: read-out: cell viability, IGR37 Parental, 1μΜ; for viability at 10 µM: read-out: cell viability, IGR37 Parental, 10μΜ.
Data set [5] concerns A375 cells (parental). The data set is described as above. Particulars: for viability at 1 µM / viability at 10 µM: Homo sapiens, A-375, 72 h; for viability at 1 µM: read-out: cell viability, A375 Parental, 1μΜ; for viability at 10 µM: read-out: cell viability, A375 Parental, 10μΜ.
Data set [6] relates to 501Mel-XP cells (Vemurafenib-resistant). The description is as above. The settings on record: 72 h; for viability at 1 µM / viability at 10 µM: Homo sapiens; for viability at 1 µM: read-out: cell viability, 501Mel XP, 1μΜ; for viability at 10 µM: read-out: cell viability, 501Mel XP, 10μΜ.
Data set [7] has as its system IGR37-GP cells (Dabrafenib-resistant). Described as above. The settings on record: for viability at 1 µM / viability at 10 µM: Homo sapiens, IGR-37, 72 h; for viability at 1 µM: read-out: cell viability, IGR37 GP, 1μΜ; for viability at 10 µM: read-out: cell viability, IGR37 GP, 10μΜ.
The test system of another data set is A375 cells. Nature of the data set: Synergy determination with the Chou-Talalay method (CompuSyn), cell viability 72 h. The settings on record: 72 h cell viability, Chou-Talalay / Synergyfinder. Format: cell-based, human. How it is done:
The Chou-Talalay method to determine possible synergistic effects of selected kinase inhibitor combinations was used as described in [19]. […] Cells were treated with either single inhibitors or combinations thereof at indicated amounts in technical triplicates. The amounts were pre-determined from each inhibitor’s IC50 value and inhibitors were assayed in a defined dilution series and at constant ratio when combined. […] Combination Index (CI) values showing either synergy (< 1) or antagonism (> 1) were calculated with the CompuSyn software (ComboSyn, Inc).

Data set [8] deals with A375-GP cells (Dabrafenib-resistant). As to the kind of experiment: Dose-response curves and IC50, PrestoBlue cell viability, 72 h. The data set is classed as cell-based, human. The settings on record: n.e. = did not suppress growth below 50% in the tested concentration range, read-out: Half-maximal inhibitory concentration value (IC50), Mean.
Data set [9] deals with A375-XP cells (Vemurafenib-resistant). Described as above. Format: cell-based, human. The settings on record: n.e. = did not suppress growth below 50% in the tested concentration range, read-out: Half-maximal inhibitory concentration value (IC50), Mean.
The test system of data set [10] is A375 cells (parental). Described as above. Format: cell-based, human. The settings on record: read-out: Half-maximal inhibitory concentration value (IC50), Mean.
Data set [11] has as its system IGR37-GP cells (Dabrafenib-resistant). Described as above. The settings on record: Homo sapiens, 72 h, read-out: Half-maximal inhibitory concentration (IC50).
Experimental: All inhibitors used in this study were purchased from Selleck Chemicals (Houston, USA). They were dissolved in DMSO to a stock concentration of 10 mM according to the manufacturer’s instructions and stored at − 80 °C. […] Cell viability was measured with the PrestoBlue Cell Viability Reagent (ThermoFisher Scientific) on a CLARIOstar Monochromator microplate reader (BMG Labtech). Using the GraphPad Prism v5.04 software, the half-maximal inhibitor concentration values (IC50) were determined from the curve using the nonlinear log (inhibitor) vs response-variable slope (four parameters) equation. […] The IC50’s were determined for 3 biological replicates and are listed with their standard deviations.
Values represent the mean of at least three biological replicates; one representative curve of at least 3 biological replicates is depicted. _XP: cells resistant to Vemurafenib (red), _GP: cells resistant to Dabrafenib (green).
[12] abbreviates: Homo sapiens, A-375, n.e. = did not suppress growth below 50% in the tested concentration range.
Setting [13] is: n.e. = did not suppress growth below 50% in the tested concentration range.

For the compound `O=C(NC1CCNCC1)c1[nH]ncc1NC(=O)c1c(Cl)cccc1Cl` [AT7519, reference compound], the “cell viability (kinase inhibitor library screening)” value came out at 10.8% in data set [1] (IGR37 XP, 1μΜ, 72 h); 2.4% in data set [1] (IGR37 XP, 10μΜ, 72 h); 82.3% with 501Mel cells (parental) (501Mel Parental, 1μΜ); 1.4% in the data set on 501Mel cells (parental) (501Mel Parental, 10μΜ); 96.2% in data set [2] (501Mel GP, 1μΜ); 0.428% in [2] (501Mel GP, 10μΜ). For the same compound, the “cell viability (kinase inhibitor library screening)” value in data set [3] (A375 GP, 1μΜ, 72 h) came out at 17.7%; in [3] (A375 GP, 10μΜ, 72 h), 4.8%; in [4] (A375 XP, 1μΜ, 72 h) it was 37.2%; in data set [4] (A375 XP, 10μΜ, 72 h), 7.6%; with IGR37 cells (parental) (IGR37 Parental, 1μΜ, 72 h), 79.7%; in the data set on IGR37 cells (parental) (IGR37 Parental, 10μΜ, 72 h), 2.2%. In addition, the “cell viability (kinase inhibitor library screening)” value with A375 cells (parental) [5] (A375 Parental, 10μΜ, 72 h) is given as 8.2%; with A375 cells (parental) [5] (A375 Parental, 1μΜ, 72 h), 30.7%; in [6] (501Mel XP, 1μΜ), 73.2%; in data set [6] (501Mel XP, 10μΜ) it was 0.0524%; in data set [7] (IGR37 GP, 1μΜ, 72 h) it was 35.9%; in [7] (IGR37 GP, 10μΜ, 72 h), 3.9%. Further, the “synergistic effects with the BRAF inhibitors Vemurafenib and/or Dabrafenib (in words)” value with A375 cells is recorded as “did not act synergistically”. Moreover, the figures for the pIC50 (in data set [8] (Homo sapiens); in data set [9] (Homo sapiens); with A375 cells (parental) [10] (setting [12])) were 6.19, 6.20 and 6.26, respectively.
For `Cc1cc(C(=O)NOCCO)c(Nc2ccc(I)cc2F)n(C)c1=O` [AZD8330, reference compound], the viability at 1 µM was found to be 45.7% in data set [1]; 48.9% with 501Mel cells (parental); 86.3% in [2]; 17.9% in data set [3]; 10.5% in data set [4]; 33% with IGR37 cells (parental). In addition, the viability at 1 µM with A375 cells (parental) [5] stood at 17.3%; in data set [6], 69.7%; in [7], 57.5%. For the same compound, the viability at 10 µM in [1] is 19%; with 501Mel cells (parental), 52.5%; in data set [2], 74.6%; in [3], 13.3%; in data set [4], 12.1%; with IGR37 cells (parental), 34%. The values for the viability at 10 µM (in the data set on A375 cells (parental) [5]; in data set [6]; in [7]) were 17.7%, 56.7% and 52%, respectively. In addition, in the data set with A375 cells, the “synergistic effects with the BRAF inhibitors Vemurafenib and/or Dabrafenib (in words)” value is reported as “synergistic effects at low concentrations”. For the same compound, the pIC50 is 8.49 in data set [8] (Homo sapiens) and 8.74 in the data set with A375 cells (parental) [10] (setting [12]).
In the case of `CN1CC[C@H](c2c(O)cc(O)c3c(=O)cc(-c4ccccc4Cl)oc23)[C@H](O)C1.Cl` [Flavopiridol HCL], the “synergistic effects with the BRAF inhibitors Vemurafenib and/or Dabrafenib (in words)” value in the data set on A375 cells is “did not act synergistically”. Further, the results for the pIC50 (in data set [8]; in [9]; in the data set with A375 cells (parental) [10] (setting [13])) were 6.91, 6.87 and 6.95, respectively.
On to `O=C(Nc1cc(C(F)(F)F)cc(C(F)(F)F)c1)c1cc(Cl)ccc1O` [IMD 0354, reference compound], for which the viability at 1 µM in data set [1] worked out at 41.2%; with 501Mel cells (parental) it was 34.2%; in [2], 25.5%; in [3], 25.5%; in data set [4] it was 29.7%; with IGR37 cells (parental), 59.5%. Further, the viability at 1 µM in the data set with A375 cells (parental) [5] came out at 23.1%; in data set [6], 26%; in data set [7], 46.7%. The viability at 10 µM in [1] is 4.1%; in the data set with 501Mel cells (parental) it was -0.0333%; in [2], -0.276%; in data set [3] it was 8.1%; in data set [4], 4.8%; in the data set with IGR37 cells (parental) it was 2.8%. For the same compound, the viability at 10 µM in the data set on A375 cells (parental) [5] is 6.5%; in data set [6], -0.369%; in [7], 15.4%. In addition, the “synergistic effects with the BRAF inhibitors Vemurafenib and/or Dabrafenib (in words)” value with A375 cells is recorded as “did not act synergistically”. Further, the pIC50 in data set [8] (Homo sapiens) was 6.13; in data set [9] (Homo sapiens), 6.00; with A375 cells (parental) [10] (setting [12]) it was 6.19.
Regarding `CC(=O)Nc1cccc(-n2c(=O)n(C3CC3)c(=O)c3c(Nc4ccc(I)cc4F)n(C)c(=O)c(C)c32)c1` [Trametinib], the pIC50 in [11] is 9.15; in data set [8] (Homo sapiens), 8.92; in data set [9] (Homo sapiens), 8.62; in the data set on A375 cells (parental) [10] (setting [12]), 9.40.
Take `CCC[C@H](NC(=O)/C(C#N)=C/c1cccc(Br)n1)c1ccccc1` [WP1130, reference compound]: the cell viability, IGR37 XP, 10μΜ in data set [1] (IGR37 XP, 10μΜ, 72 h) worked out at 1.1%. Besides, in data set [1] (IGR37 XP, 1μΜ, 72 h, in %), the “cell viability, IGR37 XP, 1μΜ” value turned out to be 99.1. The “cell viability, 501Mel Parental, 1μΜ” value in the data set on 501Mel cells (parental) (501Mel Parental, 1μΜ, in %) is recorded as 93.7. Also, in the data set with 501Mel cells (parental) (501Mel Parental, 10μΜ, in %), the “cell viability, 501Mel Parental, 10μΜ” value was 0.6. The “cell viability, 501Mel GP, 1μΜ” value in data set [2] (501Mel GP, 1μΜ, in %) amounted to 104.8. The “cell viability, 501Mel GP, 10μΜ” value in [2] (501Mel GP, 10μΜ, in %) is reported as -0.156. The “cell viability, A375 GP, 1μΜ” value in [3] (A375 GP, 1μΜ, 72 h, in %) came out at 87.1. Moreover, the “cell viability, A375 GP, 10μΜ” value in data set [3] (A375 GP, 10μΜ, 72 h, in %) was determined as 1.1. In data set [4] (A375 XP, 1μΜ, 72 h, in %), the “cell viability, A375 XP, 1μΜ” value is reported as 57.6. Also, in [4] (A375 XP, 10μΜ, 72 h, in %), the “cell viability, A375 XP, 10μΜ” value is listed as 0.429. For the same compound, the “cell viability, IGR37 Parental, 1μΜ” value with IGR37 cells (parental) (IGR37 Parental, 1μΜ, 72 h, in %) is given as 99.4. For the same compound, in the data set with IGR37 cells (parental) (IGR37 Parental, 10μΜ, 72 h, in %), the “cell viability, IGR37 Parental, 10μΜ” value is -1.6. In the data set on A375 cells (parental) [5] (A375 Parental, 1μΜ, 72 h, in %), the “cell viability, A375 Parental, 1μΜ” value was 89.3. In addition, the “cell viability, A375 Parental, 10μΜ” value in the data set with A375 cells (parental) [5] (A375 Parental, 10μΜ, 72 h, in %) was 0.545. The “cell viability, 501Mel XP, 1μΜ” value in [6] (501Mel XP, 1μΜ, in %) amounted to 103.9. Besides, the “cell viability, 501Mel XP, 10μΜ” value in [6] (501Mel XP, 10μΜ, in %) is -0.185. In addition, the cell viability, IGR37 GP, 10μΜ in data set [7] (IGR37 GP, 10μΜ, 72 h) was 1.9%. Further, in [7] (IGR37 GP, 1μΜ, 72 h, in %), the “cell viability, IGR37 GP, 1μΜ” value came out at 96.2. Moreover, the results for the pIC50 (in data set [8]; in data set [9]; in the data set on A375 cells (parental) [10] (setting [13])) were 5.80, 5.81 and 5.79, respectively.

One may read the viability as a read-out of living cells in per cent, often relative to untreated cells.
